According to US4085224A, “Method of increasing feed utilization” (Eli Lilly and Company, priority 1976, dated 1978):

Key:
[1] = tested on: Staphylococcus aureus (H-Heatley) NRRL B-314; test: turbidometric assay on semiautomated system (Autoturb), relative gram-positive activity; format: cell-based; conditions: relative to A-28086 factor A (standard); nutrient broth pH 7, four hours at 37° C.
Description: The C2 -C6 -acyl ester derivatives of A-28086 factor A also have antibacterial and antifungal activity. In one aspect, these derivatives have increased gram-positive activity. The relative gram-positive activities of certain of these derivatives were compared with the activity of factor A. The compounds were tested by turbidometric assay on a semiautomated system (Autoturb® microbiological assay system, Elanco) described by N. R. Kuzel and F. W. Kavanaugh in J. Pharmaceut. Sci. 60 (5), 764 and 767 (1971). In testing the A-28086 antibiotics, the following test parameters were used: Staphylococcus aureus (H-Heatley) NRRL B-314 in a nutrient broth medium (pH 7), incubated for four hours at 37° C. Test samples and the standard were dissolved in methanol-water (10:90). The standard, A-28086 factor A, was presented to the Autoturb® carrousel at concentrations of 2, 3, 4, and 5 mcg/ml. Test compounds were diluted to contain approximately 3 or 4 mcg of activity per ml, as presented to the carrousel. The relative activities of test compounds, as compared to that of the standard, are given below: […]

rumen fluid = test: in vitro rumen fluid volatile fatty acid production; design: species or system steer; conditions: 1 ppm in rumen fluid, 16 hours at 38° C.
Excerpt: As discussed hereinabove, efficiency of carbohydrate utilization in ruminants is increased by treatments which stimulate the amimal's rumen flora to produce propionate compounds rather than acetate or butyrate compounds. The efficiency of feed use can be monitored by observing the production and concentration of propionate compounds in the rumen, using the following methods:
Remen fluid is obtained from a steer with a surgically-installed fistula opening into the rumen. The steer is maintained on a high-grain ration. A sample of rumen fluid is strained through four layers of cheesecloth, and the filtrate is collected. The particulate matter retained by the cheesecloth is resuspended in enough physiological buffer to return it to the original volume of the rumen fluid, and this suspension is strained again. The buffer used has the following composition:
The two filtrates are combined and allowed to stand until particulate matter separates to the top. The clear layer is separated, diluted with the same buffer (1:1) and then adjusted to between pH 6.8 to 7.0.
The diluted rumen fluid (10 ml) is placed in a 25-ml flask with 40 mg of the above-described feed, an additional 1 mg of soybean protein, and the compound to be tested. Four replicate flasks are used per treatment. Two sets of four control flasks each are also employed. A zero-time control and an incubated 16-hour control are used. All test flasks are incubated for 16 hours at 38° C. […] The samples are allowed to settle, and the supernatants are analyzed by gas chromatography for propionate, acetate, and butyrate compounds.

## CCCCCC(=O)OC1C=CC2(OC(C(CC)C(=O)C(C)C(O)C(C)C3OC(C(CC)C(=O)O)C(C)CC3C)C(C)CC2C)OC12CCC(C)(C1CCC(O)(CC)C(C)O1)O2 (stereo not shown)
[1]
  Relative G+ Activity: 20
Rumen fluid
  Ratio of Treated to Control, Molar % acetate: 0.86
  Ratio of Treated to Control, Molar % butyrate: 0.97
  Ratio of Treated to Control, Molar % propionate: 1.57
  Ratio of Treated to Control, Total VFA mM/l: 0.99

## CCC(C(=O)O)C1OC(C(C)C(O)C(C)C(=O)C(CC)C2OC3(C=CC(OC(C)=O)C4(CCC(C)(C5CCC(O)(CC)C(C)O5)O4)O3)C(C)CC2C)C(C)CC1C (stereo not shown) [A-28086 factor A acetyl ester derivative]
[1]
  Relative G+ Activity: 2.5
Rumen fluid
  Ratio of Treated to Control, Molar % acetate: 0.79
  Ratio of Treated to Control, Molar % butyrate: 0.76
  Ratio of Treated to Control, Molar % propionate: 2.04
  Ratio of Treated to Control, Total VFA mM/l: 1.04

## CCC(=O)OC1C=CC2(OC(C(CC)C(=O)C(C)C(O)C(C)C3OC(C(CC)C(=O)O)C(C)CC3C)C(C)CC2C)OC12CCC(C)(C1CCC(O)(CC)C(C)O1)O2 (stereo not shown)
[1]
  Relative G+ Activity: 7
Rumen fluid
  Ratio of Treated to Control, Molar % acetate: 0.90
  Ratio of Treated to Control, Molar % butyrate: 0.68
  Ratio of Treated to Control, Molar % propionate: 1.73
  Ratio of Treated to Control, Total VFA mM/l: 1.25

## CCCC(=O)OC1C=CC2(OC(C(CC)C(=O)C(C)C(O)C(C)C3OC(C(CC)C(=O)O)C(C)CC3C)C(C)CC2C)OC12CCC(C)(C1CCC(O)(CC)C(C)O1)O2 (stereo not shown)
[1]
  Relative G+ Activity: 8
Rumen fluid
  Ratio of Treated to Control, Molar % acetate: 0.91
  Ratio of Treated to Control, Molar % butyrate: 0.81
  Ratio of Treated to Control, Molar % propionate: 1.56
  Ratio of Treated to Control, Total VFA mM/l: 1.19

## CCCCC(=O)OC1C=CC2(OC(C(CC)C(=O)C(C)C(O)C(C)C3OC(C(CC)C(=O)O)C(C)CC3C)C(C)CC2C)OC12CCC(C)(C1CCC(O)(CC)C(C)O1)O2 (stereo not shown)
[1]
  Relative G+ Activity: 14
Rumen fluid
  Ratio of Treated to Control, Molar % acetate: 0.92
  Ratio of Treated to Control, Molar % butyrate: 0.79
  Ratio of Treated to Control, Molar % propionate: 1.55
  Ratio of Treated to Control, Total VFA mM/l: 1.18
